Data: patent US20190382850A1, “METHOD FOR IDENTIFYING MITOCHONDRIAL DNA IN EXTRACELLULAR VESICLES AND TREATMENT OF MTDNA-RELATED DISORDERS AND CANCER” (Memorial Sloan-Kettering Cancer Center, priority 2017, published 2019)

How the values were obtained:
[1] = test system: ER+ tumor-derived cells and cell lines; test: OXPHOS potential (Seahorse) in HT-treated cancer cells; type: cell-based, human; settings: fulvestrant; FIG. 11c
Description: (Panel a), Representative bright field images of MCF7 po cells±CAF-EVs (3×10^9/weekly for 40 days). Bar graph of number of MS is also reported at the endpoint of the experiment (40 days). (Panel b), HT led to decreased expression of mRNA involved in protein synthesis and OXPHOS signaling with z score and -log (p-values)- as determined by Ingenuity analysis of microarray data from RNA isolated FIG. 5a (MCF7), single P values are also reported. (Panel c), OXPHOS potential determined as changes of respiration rate under mitochondrial stressors by seahorse technology (oligomycin 1 μM, rotenone 100 nM) in cancer cells isolated from FIG. 5b (MCF7, PT1). […] (Panel e), Mitochondrial Complex I/IV activity quantification as determined by nmol/min/mg of protein in luminal breast cancer cell lines from panel a. […]
Mitochondrial respiration and OXPHOS potential in cells was assessed using Seahorse technology (www.seahorsebio.com)(Qian, W. & Van Houten, B. Alterations in bioenergetics due to changes in mitochondrial DNA copy number. Methods 51, 452-457 (2010)). Oxygen consumption rate (OCR), extracellular acidification rate and glycolytic potential were determined using the Seahorse extracellular flux analyzer (XF-96, XF-24 Seahorse Bioscience). […] Furthermore OXPHOS potential was determined by measuring the area of the progress curve after the addition of glucose and rotenone/oligomycin.

[2] = test system: luminal breast cancer cells and xenograft derived cells; test: mtDNA level (qPCR copy number) in HT-induced dormant cells; type: cell-based, human; settings: fulvestrant 10 μM for 2 months; several models of HT-induced dormancy; FIG. 5b
Experimental: (Panel b) mtDNA level (qPCR as fold change, naïve cells was used as reference) in luminal breast cancer cells and xenograft derived cells (multiple models)±HT (fulvestrant, 10 μM for 2 months). (Panel c) Dormant MCF7 cells (HTD) were isolated and treated with 3×10^9 mCAF-derived EVs (wt-mtDNA^hi or ρ0-mtDNA^lo) weekly ×4+HT (fulvestrant, 10 μM/weekly). After 40 days, mammosphere (MS) number and mitochondrial membrane potential (Δψ) by TMRE staining (red) in HTR/mito^hi EV and HTD/mito^lo EV educated cells was determined; scale bar 15 μm. […] (Panel f) Murine mitochondrial RNA expression (14 genes, as fold change -log10scale-) by qRT-PCR in HTR and HTS cells (panel e) (reference HTDorm cells; MCF7); the expression of nuclear encoded murine (non-mitochondrial RNA) transcripts was also determined (Cox4, β2M). […]
Generation of HTD cells was performed by treating ER+(GFP+) breast cancer cell lines (MCF7, ZR751, BT474) with HT (fulvestrant, 10 μM) for 2 months. […] Viable cell number was subsequently determined using trypan blue exclusion and cell counting using bright field microscopy HTD cells were then cultured in vitro or injected in vivo for further studies. […] Proliferation was determined by Cal cein AM technique (InVitrogen). […] After 40 days, mammosphere number (bright field microscopy) was determined after 40 days. […] Tumor growth was determined by BLI and after necropsy. […]

C[C@]12CC[C@@H]3c4ccc(O)cc4C[C@@H](CCCCCCCCC[S+]([O-])CCCC(F)(F)C(F)(F)F)[C@H]3[C@@H]1CC[C@@H]2O (some centres unmarked) [fulvestrant]
OXPHOS potential in cells treated with HT [1]: reduced
reduction of mtDNA level (copy number) vs control [2]: 70-90%
